In one experiment the target is Heat shock protein HSP90 (Homo sapiens, UniProt P07900+P08238). Nature of the experiment: Inhibition of Hsp90 by recombinant ATPase assay. The format is functional.
For another experiment, the system named is SK-BR-3. Nature of the experiment: Antiproliferative activity against human SKBr3 cells. It is filed as functional, cell-based.
The mark [1] stands for this setting: Homo sapiens, SK-BR-3, read-out: IC50.

SMILES strings stand for the structures.

For `O=C1CC(=O)N(c2cccc(Cl)c2)N1`, the half-inhibitory concentration (IC50) on Heat shock protein HSP90 is 4.1 µM; in the experiment on SK-BR-3 (sk-br-3), “Not Active”.
`O=S(=O)(Nc1ccc(Cl)cc1O)c1ccccc1`: the IC50 on Heat shock protein HSP90 is 2 µM; in the experiment on SK-BR-3 (setting [1]), 75 µM.
With `Cc1cc(O)nc(SCC(=O)c2ccc(O)c(O)c2)n1`, the values for the half-inhibitory concentration (IC50) on Heat shock protein HSP90 and with SK-BR-3 (sk-br-3) were 2.3 µM and “Not Active”, respectively.
`CC1(C)CC2=Nc3ccccc3NC(c3cccc(O)c3O)C2=C(O)C1` (stereo not given): the figures for the IC50 on Heat shock protein HSP90 and in the experiment with SK-BR-3 (setting [1]) were 2.7 µM and 66 µM, respectively.
On to `COc1cccc(C(=O)Nc2ccc(O)c(C)c2)c1`, for which the IC50 on Heat shock protein HSP90 is 2.5 µM; in the experiment with SK-BR-3 (sk-br-3), “Not Active”.
With `O=C1CC(Nc2ccc(N3CCOCC3)cc2)C(=O)N1Cc1ccccc1` (stereo not given), the IC50 at Heat shock protein HSP90 was 1.9 µM; in the experiment with SK-BR-3 (sk-br-3) it was “Not Active”.
Take `COc1cc(C2CC(c3ccccc3O)=NN2)ccc1O` (stereo not given): the half-maximal inhibitory concentration (IC50) on Heat shock protein HSP90 was found to be 5.4 µM; in the experiment on SK-BR-3 (setting [1]) it was 48 µM.
As for `Cc1nc(N)sc1-c1csc(Nc2ccccn2)n1`, the IC50 on Heat shock protein HSP90 is 7 µM; in the experiment with SK-BR-3 (sk-br-3), “Not Active”.
For `COc1ccc(O)c(-c2c[nH]nc2-c2cccs2)c1` the same measures were 3 µM and “Not Active”.
For the compound `O=c1c(Oc2ccc(F)cc2)coc2c(O)c(O)ccc12`, the IC50 on Heat shock protein HSP90 is 3.2 µM; with SK-BR-3 (sk-br-3), “Not Active”.

For the origin of these results see ChEMBL document CHEMBL1148663, “High-throughput screening for Hsp90 ATPase inhibitors” (Bioorg Med Chem Lett, 2006).
